Source: patent EP0137439A2, “Antitumour agent” (Henkel Kommanditgesellschaft auf Aktien, priority 1983, dated 1985)

Tested on: Tumorart P 388 (Leukämie)
Assay: P 388 leukemia survival test in mice, NCI protocol 1200
Format: in vivo, Mäusen
Conditions: P 388 i.p. in mice; for T/C-Wert: aqueous 1% injection solution, rate of survival prolongation vs untreated animals; for 30 Tage überlebende Tiere (von 6): animals out of 6 alive at 30 days
Description: Epoxid-0: gef. 18,94 %, ber. 18,82 % Die nachfolgenden Versuche wurden durchgeführt nach Testvorschriften des National Cancer Institute Bethesda, Maryland 200014, veröffentlicht in "Cancer Chemotherapy Reports" Part. 3, September 1972, Vol. 3, Nr. 2. Als Wirksubstanz wurde 1,2-Diglycidyl-4-diglycidylamino- urazol des vorstehenden Beispiels 1 verwendet. Die Substanz wurde als wäßrige, 1%ige In jektions lösung unmittelbar vor der Applikation frisch hergestellt.
Bei Mäusen wurde gemäß Protokoll 1200 (S. 91c) die Tumorart P 388 (Leukämie) i.p. mit […] gesetzt. Die mittlere Uberlebensdauer der unbehandelten Tiere wird bestimmt.
In weiteren Versuchsgruppen wird entsprechend vorbehandelten Tieren der Wirkstoff applizi-ert. Es wird eine signifikante Verlängerung der Lebensdauer der behandelten Testtiere gegenüber der mittleren Überlebensdauer der nicht mit dem Wirkstoff behandelten Tiere erzielt. Die Verlängerungsrate T/C in Abhängigkeit von der Dosierung des Wirkstoffes ist in der folgenden Tabelle zusammengestellt: […]

Structure (SMILES) | T/C-Wert (dose 25 mg/kg) | 30 Tage überlebende Tiere (von 6) (dose 50 mg/kg) | T/C-Wert (dose 50 mg/kg) | 30 Tage überlebende Tiere (von 6) (dose 6,25 mg/kg) | T/C-Wert (dose 6,25 mg/kg) | T/C-Wert (dose 12,5 mg/kg) | 30 Tage überlebende Tiere (von 6) (dose 25 mg/kg)
O=c1n(N(CC2CO2)CC2CO2)c(=O)n(CC2CO2)n1CC1CO1 (stereo not drawn) [1,2-Diglycidyl-4-diglycidyl-aminourazol, 1,2-Diglycidyl-4-diglycidylamino-urazol] | 155 | 6 | >300 | 3 | 291 | 142 | –
O=c1n(CC2CO2)c(=O)n(CC2CO2)n1CC1CO1 (stereo not drawn) [Triglycidylurazol] | 260 | 6 | 300 | – | 180 | 230 | 4
